Patent US8846666B2, “Oxathiazine derivatives which are substituted with benzyl or heteromethylene groups, method for producing them, their use as medicine and drug containing said derivatives and the use thereof” (Sanofi, priority 2011, dated 2014)

Target: human 11β-HSD1 microsome fraction (Homo sapiens, UniProt P28845)
Assay: Enzymatic 11Beta-HSD1 test (SPA-based detection)
Format: biochemical
Conditions: [1,2-3H]-cortisone, NADPH, 37° C. for 1 hour
Procedure: Enzymatic 11Beta-HSD1 Test:
To measure the activity of the compounds, an SPA-based detection method (Solly et al. 2005) was employed. First of all, 20 μl of the human 11β-HSD1 microsome fraction (0.2 μg of protein), prepared in 50 mM HEPES, 0.1% BSA (w/v), were applied to a plate with 384 wells. The test compounds (0.09 μl) were applied to the assay plate in 100% DMSO. The reaction was started by addition of 20 μl of [1,2-^3H]-cortisone (0.1 μCi/[…]) in assay buffer comprising 25 mM HEPES, 100 mM KCl, 5 mM NaCl, 2 mM MgCl2 and 0.25 mM NADPH. The plate was agitated at 37° C. for 1 hour. At the same time, a stop solution comprising 20 mg/ml SPA-PVT beads, 1.6 mg/ml monoclonal cortisol antibody and 0.01 mM SSR110887 (inhibitor from the Biovitrium patent) in 50 mM HEPES, 1 M NaCl and 1 M KCl was stirred at room temperature. To stop the reaction, 25 μl of the stop solution were added to each well. The plate was agitated gently at room temperature for 1 further hour and then centrifuged at 500 gav for 1 min, in order that the SPA beads could settle out. The plate was then read in a Wallac-1450-Microbeta unit with a standard SPA program (counting time 1 min/well). The comparative compound was glycyrrhetinic acid.
Protein and radioactive substrate were dispensed with a Biomek FX unit (Beckman Coulter) for handling liquids. The test compounds were added with a Cybi-Well equipped with a 90 nl pin tool (CyBio).
Lit.: Solly S, Mundt S S, Zokian H J, Juy-Fang Ding G, Hermanowski-Vosatka A, Strulovici B and Zheng W. High-throughput screening of 11β-Hydroxysteroid dehydrogenase type 1 in scintillation proximity format. Assay Drug Dev Technol 2005; 3:377-384.

Chain of human 11β-HSD1 microsome fraction (P28845 whole entry): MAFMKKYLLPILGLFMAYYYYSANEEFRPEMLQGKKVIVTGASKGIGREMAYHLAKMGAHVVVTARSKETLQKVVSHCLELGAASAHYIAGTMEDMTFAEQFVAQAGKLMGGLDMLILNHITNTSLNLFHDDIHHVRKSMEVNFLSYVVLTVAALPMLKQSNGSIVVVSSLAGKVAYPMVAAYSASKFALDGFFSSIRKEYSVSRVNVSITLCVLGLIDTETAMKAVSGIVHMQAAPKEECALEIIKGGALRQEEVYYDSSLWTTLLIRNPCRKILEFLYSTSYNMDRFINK

With `CC1(C)OC(N[C@@H](CCO)c2ccccc2)=NS(=O)(=O)C1Cc1ccc(Cl)cc1` (stereo partly drawn) [Example 1, (S)-3-[5-(4-Chlorobenzyl)-6,6-dimethyl-4,4-dioxo-5,6-dihydro-4H-4lambda6-[1,4,3]oxathiazin-2-ylamino]-3-phenyl-propan-1-ol] the IC50 was 5 nM.

In the case of `CC1(C)OC(N[C@@H](CCO)c2ccccc2)=NS(=O)(=O)C1Cc1ccccc1` (stereo partly drawn) [Example 2, (S)-3-(5-Benzyl-6,6-dimethyl-4,4-dioxo-5,6-dihydro-4H-4lambda6-[1,4,3]oxathiazin-2-ylamino)-3-phenyl-propan-1-ol], the IC50 is reported as 7 nM.

Work on `C[C@H](NC1=NS(=O)(=O)C(C)(Cc2ccc(Br)cc2)C(C)(C)O1)c1ccccc1F` (stereo partly drawn) [Example 3, [5-(4-Bromobenzyl)-5,6,6-trimethyl-4,4-dioxo-5,6-dihydro-4H-4lambda6-[1,4,3]oxathiazin-2-yl]-[(S)-1-(2-fluorophenyl)-ethyl]-amine] yielded an IC50 of 4 nM.

`CC1(C)OC(N[C@@H](CCO)c2ccccc2F)=NS(=O)(=O)C1(C)Cc1ccc(Br)cc1` (stereo partly drawn) [Example 4, (S)-3-[5-(4-Bromobenzyl)-5,6,6-trimethyl-4,4-dioxo-5,6-dihydro-4H-4lambda6-[1,4,3]oxathiazin-2-ylamino]-3-(2-fluorophenyl)-propan-1-ol] gave an IC50 of 3 nM.

In the case of `C[C@H](NC1=NS(=O)(=O)C(C)(Cc2ccccc2)C(C)(C)O1)c1ccccc1F` (stereo partly drawn) [Example 5, (5-Benzyl-5,6,6-trimethyl-4,4-dioxo-5,6-dihydro-4H-4lambda6-[1,4,3]oxathiazin-2-yl)-[(S)-1-(2-fluorophenyl)-ethyl]-amine], the IC50 is reported as 5 nM.

`CC1(C)OC(N[C@@H](CCO)c2ccccc2F)=NS(=O)(=O)C1(C)Cc1ccc(-c2ccccn2)cc1` (stereo partly drawn) [Example 6, (S)-3-(2-Fluorophenyl)-3-[5,6,6-trimethyl-4,4-dioxo-5-(4-pyridin-2-yl-benzyl)-5,6-dihydro-4H-4lambda6-[1,4,3]oxathiazin-2-ylamino]-propan-1-ol] showed an IC50 of 6 nM.

With `CC1(C)OC(N[C@@H](CCO)c2ccccc2F)=NS(=O)(=O)C1(C)Cc1ccc(-c2ccc(C(F)(F)F)cn2)cc1` (stereo partly drawn) [Example 7, (S)-3-(2-Fluorophenyl)-3-{5,6,6-trimethyl-4,4-dioxo-5-[4-(5-trifluoromethyl-pyridin-2-yl)-benzyl]-5,6-dihydro-4H-4lambda6-[1,4,3]oxathiazin-2-ylamino}-propan-1-ol] the IC50 was 12 nM.

`CC1(C)OC(N[C@@H](CCO)c2ccccc2F)=NS(=O)(=O)C1Cc1ccc(-c2ccc(C(F)(F)F)cn2)cc1` (stereo partly drawn) [Example 8, (S)-3-{6,6-Dimethyl-4,4-dioxo-5-[4-(5-trifluoromethyl-pyridin-2-yl)-benzyl]-5,6-dihydro-4H-4lambda6-[1,4,3]oxathiazin-2-ylamino}-3-(2-fluoro-phenyl)-propan-1-ol] gave an IC50 of 7 nM.

Work on `CC1(C)OC(N[C@@H](CCO)c2ccccc2F)=NS(=O)(=O)C1Cc1cccc(-c2ccccc2)c1` (stereo partly drawn) [Example 9, (S)-3-(5-Biphenyl-3-ylmethyl-6,6-dimethyl-4,4-dioxo-5,6-dihydro-4H-4lambda6-[1,4,3]oxathiazin-2-ylamino)-3-(2-fluoro-phenyl)-propan-1-ol] yielded an IC50 of 5 nM.

For `CC1(C)OC(N[C@@H](CCO)c2ccccc2F)=NS(=O)(=O)C1Cc1ccc(-c2ccccc2)cc1` (stereo partly drawn) [Example 10, (S)-3-(5-Biphenyl-4-ylmethyl-6,6-dimethyl-4,4-dioxo-5,6-dihydro-4H-4lambda6-[1,4,3]oxathiazin-2-ylamino)-3-(2-fluoro-phenyl)-propan-1-ol], the IC50 was 4 nM.

For `CC1(C)OC(N[C@@H](CCO)c2ccccc2Cl)=NS(=O)(=O)C1Cc1ccccc1` (stereo partly drawn) [Example 11, (S)-3-(5-Benzyl-6,6-dimethyl-4,4-dioxo-5,6-dihydro-4H-4lambda6-[1,4,3]oxathiazin-2-ylamino)-3-(2-chlorophenyl)-propan-1-ol], the IC50 was 8 nM.

`CC1(C)OC(N[C@@H](CCO)c2ccccc2F)=NS(=O)(=O)C1Cc1ccccc1` (stereo partly drawn) [Example 12, (S)-3-(5-Benzyl-6,6-dimethyl-4,4-dioxo-5,6-dihydro-4H-4lambda6-[1,4,3]oxathiazin-2-ylamino)-3-(2-fluorophenyl)-propan-1-ol] was tested, and the IC50 was 4 nM.

In the case of `CC1(C)OC(N[C@@H](CCO)c2cccc(F)c2Cl)=NS(=O)(=O)C1Cc1ccccc1` (stereo partly drawn) [Example 13, (S)-3-(5-Benzyl-6,6-dimethyl-4,4-dioxo-5,6-dihydro-4H-4lambda6-[1,4,3]oxathiazin-2-ylamino)-3-(2-chloro-3-fluorophenyl)-propan-1-ol], the IC50 is reported as 6 nM.

`CC1(C)OC(N[C@@H](CCO)c2cc(Cl)ccc2F)=NS(=O)(=O)C1Cc1ccccc1` (stereo partly drawn) [Example 14, (S)-3-(5-Benzyl-6,6-dimethyl-4,4-dioxo-5,6-dihydro-4H-4lambda6-[1,4,3]oxathiazin-2-ylamino)-3-(5-chloro-2-fluorophenyl)-propan-1-ol] showed an IC50 of 4 nM.

Work on `CC1(C)OC(N[C@@H](CCO)c2ccc(Cl)cc2)=NS(=O)(=O)C1Cc1ccccc1` (stereo partly drawn) [Example 15, (S)-3-(5-Benzyl-6,6-dimethyl-4,4-dioxo-5,6-dihydro-4H-4lambda6-[1,4,3]oxathiazin-2-ylamino)-3-(4-chlorophenyl)-propan-1-ol] yielded an IC50 of 10 nM.

`CC1(C)OC(N[C@@H](CCO)c2cccc(Cl)c2)=NS(=O)(=O)C1Cc1ccccc1` (stereo partly drawn) [Example 16, (S)-3-(5-Benzyl-6,6-dimethyl-4,4-dioxo-5,6-dihydro-4H-4lambda6-[1,4,3]oxathiazin-2-ylamino)-3-(3-chlorophenyl)-propan-1-ol] gave an IC50 of 6 nM.

`CC1(C)OC(N[C@@H](CCO)c2cc(F)ccc2F)=NS(=O)(=O)C1Cc1ccccc1` (stereo partly drawn) [Example 17, (S)-3-(5-Benzyl-6,6-dimethyl-4,4-dioxo-5,6-dihydro-4H-4lambda6-[1,4,3]oxathiazin-2-ylamino)-3-(2,5-difluorophenyl)-propan-1-ol] gave an IC50 of 4 nM.

`CC1(C)OC(N[C@@H](CCO)c2ccc(F)cc2F)=NS(=O)(=O)C1Cc1ccccc1` (stereo partly drawn) [Example 18, (S)-3-(5-Benzyl-6,6-dimethyl-4,4-dioxo-5,6-dihydro-4H-4lambda6-[1,4,3]oxathiazin-2-ylamino)-3-(2,4-difluorophenyl)-propan-1-ol] was tested, and the IC50 was 5 nM.

`Cc1ccc(F)cc1[C@H](CCO)NC1=NS(=O)(=O)C(Cc2ccccc2)C(C)(C)O1` (stereo partly drawn) [Example 19, (S)-3-(5-Benzyl-6,6-dimethyl-4,4-dioxo-5,6-dihydro-4H-4lambda6-[1,4,3]oxathiazin-2-ylamino)-3-(5-fluoro-2-methyl-phenyl)-propan-1-ol] was tested, and the IC50 was 4 nM.

In the case of `CC1(C)OC(NC23CCC(F)(CC2)CC3)=NS(=O)(=O)C1Cc1ccccc1` (stereo not shown) [Example 20, (5-Benzyl-6,6-dimethyl-4,4-dioxo-5,6-dihydro-4H-4lambda6-[1,4,3]oxathiazin-2-yl)-(4-fluoro-bicyclo[2.2.2]oct-1-yl)-amine], the IC50 is reported as 5 nM.

For `CC1(C)OC(N[C@@H](CCO)c2ccccc2F)=NS(=O)(=O)C1Cc1cccc2ccccc12` (stereo partly drawn) [Example 21, (S)-3-(6,6-Dimethyl-5-naphthalen-1-ylmethyl-4,4-dioxo-5,6-dihydro-4H-4lambda6-[1,4,3]oxathiazin-2-ylamino)-3-(2-fluorophenyl)-propan-1-ol], the IC50 was 5 nM.

Work on `CC1(C)OC(N[C@@H](CCO)c2ccccc2F)=NS(=O)(=O)C1Cc1ccc(C2CCNCC2)cc1` (stereo partly drawn) [Example 22, (S)-3-[6,6-Dimethyl-4,4-dioxo-5-(4-piperidin-4-yl-benzyl)-5,6-dihydro-4H-4lambda6-[1,4,3]oxathiazin-2-ylamino]-3-(2-fluorophenyl)-propan-1-ol] yielded an IC50 of 7 nM.

`CC1(C)OC(N[C@@H](CCO)c2ccccc2F)=NS(=O)(=O)C1Cc1ccc(C2=CCNCC2)cc1` (stereo partly drawn) [Example 23, (S)-3-{6,6-Dimethyl-4,4-dioxo-5-[4-(1,2,3,6-tetrahydro-pyridin-4-yl)-benzyl]-5,6-dihydro-4H-4lambda6-[1,4,3]oxathiazin-2-ylamino}-3-(2-fluoro-phenyl)-propan-1-ol] was tested, and the IC50 was 17 nM.

`CN1CCC(c2ccc(CC3C(C)(C)OC(N[C@@H](CCO)c4ccccc4F)=NS3(=O)=O)cc2)CC1` (stereo partly shown) [Example 25] showed an IC50 of 20 nM.

`CC1(C)OC(N[C@@H](CCO)c2ccccc2F)=NS(=O)(=O)C1Cc1ccc(C2CCN(CCCO)CC2)cc1` (stereo partly shown) [Example 26] showed an IC50 of 16 nM.

`CC1(C)OC(N[C@@H](CCO)c2ccccc2F)=NS(=O)(=O)C1Cc1ccc(C2CCN(CCO)CC2)cc1` (stereo partly shown) [Example 27] was tested, and the IC50 was 5 nM.

With `CC1(C)OC(N[C@@H](CCO)c2ccccc2F)=NS(=O)(=O)C1Cc1ccc(C2CCN(C3CC3)CC2)cc1` (stereo partly drawn) [Example 28, (S)-3-{5-[4-(1-Cyclopropyl-piperidin-4-yl)-benzyl]-6,6-dimethyl-4,4-dioxo-5,6-dihydro-4H-4lambda6-[1,4,3]oxathiazin-2-ylamino}-3-(2-fluorophenyl)-propan-1-ol] the IC50 was 9 nM.

Molecule `CC1(C)OC(N[C@@H](CCO)c2ccccc2F)=NS(=O)(=O)C1Cc1ccc(C2CCN(CCC(F)(F)F)CC2)cc1` (stereo partly drawn) [Example 29, (S)-3-(6,6-Dimethyl-4,4-dioxo-5-{4-[1-(3,3,3-trifluoropropyl)-piperidin-4-yl]-benzyl}-5,6-dihydro-4H-4lambda6-[1,4,3]oxathiazin-2-ylamino)-3-(2-fluorophenyl)-propan-1-ol] has an IC50 of 7 nM.
